Experimental findings from paper PMC4411898, “Impact of kinesin Eg5 inhibition by 3,4-dihydropyrimidin-2(1H)-one derivatives on various breast cancer cell features” (BMC Cancer, 2015) are described below.

Read-outs that look alike come from different tables or passages of the source.

Series [1] deals with HUVEC cells. Put plainly: HUVEC tube formation assay. The series is classed as cell-based, human. The following applies: 11 h; 30 μM, IC50 or 300 μM, mainly 300 μM. The method, then:
The anti-angiogenic potential of DHPMs was tested using an in vitro Angiogenesis Assay Kit according to the manufacturer’s instructions. […] These plates were incubated for 11 hours at 37°C, in 5% CO2. Wells were subsequently photographed using an inverted light microscope at 20x magnification and tube formation analyzed. Seven fields per group of 3 independent experiments were quantified by pattern recognition according to manufacturer’s instructions.

The test system of series [2] is MCF-7 cells. Put plainly: Apoptosis and necrosis assay (Annexin-V/PI flow cytometry), MCF-7. It is filed as cell-based, human. The note with it: 72 h; 4m 1.0 mM, 4bt 0.8 mM, 4p 0.4 mM, 4bc 1.0 mM, 4x 0.8 mM. On the procedure:
(§1) For proliferation assays, cells were treated with IC50 concentrations of each compound. Adherent and floating cells were harvested at the same tube and pelleted by centrifugation at 300 g for 5 minutes and stained. Data acquisition of these two fractions put together was performed on a FACSCalibur flow cytometer using CellQuest software and analysed using the FloJo Software. Untreated control cells and DHPMs-treated for 72 h cell samples were stained with Annexin-V-FITC or Annexin-V-Alexa Fluor® 680 and propidium iodide according to the manufacturer’s instructions.
(Flow cytometry measures light scatter and fluorescence of single cells or particles in a stream.)

Series [3] deals with MCF-7 cells. Description: Morphological alterations under inverted light microscope, MCF-7. It is filed as cell-based, human. The note with it: 72 h, maximum non-cytotoxic concentration to normal cells. The method, then: Figure 2 DHPM derivatives cause severe morphological alterations on breast cancer cells. MCF-7 and MDA-MB-231 cells were treated with the maximum non-cytotoxic concentration to normal cells for 72 h and morphological alterations analyzed under an inverted light microscope. Cells with elongated morphology, adherent to the surface and normal size are shown by arrows. Cells with size reduction, absence of focal adhesion points, rounded morphology and detached from the surface where they had been seeded are shown by arrowheads.

The subject of series [4] is MCF-7 cells. Put plainly: Cell cycle analysis (PI), MCF-7. The series is classed as cell-based, human. The note with it: 4m 1 mM, 4bt 0.8 mM, 4p 0.4 mM, 4bc 1.0 mM, 4x 0.8 mM. On the procedure:
For proliferation assays, cells were treated with IC50 concentrations of each compound. Adherent and floating cells were harvested at the same tube and pelleted by centrifugation at 300 g for 5 minutes and stained. Data acquisition of these two fractions put together was performed on a FACSCalibur flow cytometer using CellQuest software and analysed using the FloJo Software. Control and DHPM-treated cells were harvested at 24, 48 and 72 h, resuspended in ice-cold PBS and fixed with 70% ethanol on ice. Cells were then washed with PBS, harvested and incubated with propidium iodide solution (0.1% Triton X-100, 10 μg/mL propidium iodide, 100 μg/mL DNase free RNase) for 10 min at 37°C. For analysis of cell populations in each cell cycle phase, the sub-G1 picks were excluded and the plots were generated by cell cycle platform data analysis by the FlowJo Software.

Series [5] deals with MCF-7 cells. Put plainly: CD44+/CD24- expression analysis, MCF-7. It is filed as cell-based, human. The following applies: 24 h; for CD44-/CD24- subpopulation, MCF-7 (mean ± SEM): 4m 1.0 mM, 4bt 0.8 mM, 4p 0.4 mM, 4bc 1.0 mM, 4x 0.8 mM, monastrol 1.0 mM; for CD44+/CD24+ subpopulation, MCF-7 (mean ± SEM) / CD44-/CD24+ subpopulation, MCF-7 (mean ± SEM) / CD44+/CD24- subpopulation, MCF-7 (mean ± SEM): concentrations as E28; for CD44+/CD24- subpopulation, MCF-7 (mean ± SEM): control 0.38 ± 0.18. On the procedure:
(§2) For proliferation assays, cells were treated with IC50 concentrations of each compound. Adherent and floating cells were harvested at the same tube and pelleted by centrifugation at 300 g for 5 minutes and stained. Data acquisition of these two fractions put together was performed on a FACSCalibur flow cytometer using CellQuest software and analysed using the FloJo Software. Expression level of CD44 and CD24 in treated and control MCF-7 or MDA-MB-231 cells was measured after 24 h of treatment.

Series [6] relates to MDA-MB-231 cells. Description: MTT cell viability assay, MDA-MB-231. The series is classed as cell-based, human. The note with it: for IC50: Homo sapiens, read-out: IC50 MDA-MB-231. The method, then: (§3) Absorbance readings were measured by a spectrophotometer. Cell viability was normalized to control (vehicle only).
(In general: Tetrazolium dyes change colour on reduction, which living cells bring about.)

The subject of series [7] is Fibroblasts (primary culture from healthy human dental pulp). The method, then:
MCF-7 cell line and primary culture of connective tissue cells were provided by the Laboratory of Morphology, University of Brasília (Brasília, BR). MDA-MB-231 cells were purchased from Rio de Janeiro Cell Bank (RJCB - Rio de Janeiro, BR). Cell line characterization and authentication was conducted by RJCB using short tandem repeat profiling. Primary culture cells were taken from healthy human dental pulp predominantly consisting of fibroblasts and were used as normal control cells. MCF-7 cells and fibroblasts were grown in complete DMEM and maintained at 37°C with 5% CO2. MDA-MB-231 cells were grown in Leibovitz L15 medium at 37°C without CO2. Culture media were supplemented with 10% fetal bovine serum and 25 μg/mL of gentamicin.
Cytotoxicity was determined using 3-(4,5-dimethylthiazol-2-yl)-2,5-diphenylterazolium bromide (MTT) according to the manufacturer’s instructions. Absorbance readings were measured by a spectrophotometer. Cell viability was normalized to control (vehicle only).

Series [8] concerns MDA-MB-231 cells. Description: CD44+/CD24- expression analysis, MDA-MB-231. The series is classed as cell-based, human. The note with it: 24 h; for CD44-/CD24- subpopulation, MDA-MB-231 (mean ± SEM): 4m 1.0 mM, 4bt 0.8 mM, 4p 0.4 mM, 4bc 1.0 mM, 4x 0.8 mM, monastrol 1.0 mM; for CD44+/CD24+ subpopulation, MDA-MB-231 (mean ± SEM): control 1.507 ± 0.47. On the procedure:
as §2

The test system of series [9] is MDA-MB-231 cells. Put plainly: Apoptosis and necrosis assay (Annexin-V/PI flow cytometry), MDA-MB-231. The series is classed as cell-based, human. The note with it: 72 h; 4m 1.0 mM, 4bt 0.8 mM, 4p 0.4 mM, 4bc 1.0 mM, 4x 0.8 mM. On the procedure: as §1
The subject of series [10] is MCF-7 cells. Description: α-tubulin immunostaining, spindle formation. It is filed as cell-based, human. The following applies: for Monoastral Spindle (%) 24 h / Bipolar Spindle (%) 24 h / Bipolar Spindle (%) 48 h / Monoastral Spindle (%) 48 h: n = 300 dividing cells; for Monoastral Spindle (%) 24 h: monastrol 0.1 mM; for Bipolar Spindle (%) 24 h / Bipolar Spindle (%) 48 h / Monoastral Spindle (%) 48 h: concentrations as E14; for Bipolar Spindle (%) 48 h / Monoastral Spindle (%) 48 h: MCF-7, 48 h. On the procedure: Aliquots of 7 × 10^4 MCF-7 cells were seeded onto 12 mm round glass coverslips placed in the base of each well of a 24-well plate. After adhesion, cells were treated for 24 and 48 h with the pre-selected compounds at their maximum non-cytotoxic concentrations to normal cells or incubated with culture medium only for the same duration (negative control). Cells were washed with PBS, fixed with 3.7% formaldehyde, permeabilized with 0.1% Triton X-100 and blocked in PBS supplemented with 1% skimmed milk, 2.5% bovine serum albumin (BSA) and 8% fetal bovine serum (FBS) at room temperature. Cells were incubated overnight with mouse anti-α-tubulin antibody (1:500) at 4°C, followed by incubation with a secondary antibody: Alexa Fluor 488 rabbit anti-mouse IgG (1:400), for 1 hour at 37°C. Nuclei were stained with 300 nM DAPI. The coverslips were mounted with ProLong Gold Antifade and specimens observed under a laser scanning confocal microscope.
Table S1. Quantification of monopolar spindles occurred as a result of treatment with DHPM derivatives. MCF-7 control cells or cells treated for 24 or 48 h with 4m (1 mM), […]
antibody. The percentage of dividing cells showing presence of monoastral and bipolar spinles formation determined (n = 300).
Experimental Group Monoastral Spindle (%) Bipolar Spindle (%)

In series [11] the test system is MCF-7 cells. Put plainly: MTT cell viability assay, MCF-7. The series is classed as cell-based, human. The following applies: for IC50: Homo sapiens, read-out: IC50 MCF-7. The method, then:
as §3

[12] abbreviates: all concentrations tested 100 μM – 1.00 mM, 72 h.
Setting [13] is: MCF-7, 24 h, 4m 1.0 mM, 4bt 0.8 mM, 4p 0.4 mM, 4bc 1.0 mM, 4x 0.8 mM.

As usually defined, the IC50 is the concentration that inhibits the measured activity by half. With `CC1(C)CC(=O)C2=C(C1)NC(=S)NC2c1cccc(O)c1` (stereo not shown) [Compound 4bt, Dimethylenastron], the “HUVEC tube formation (pattern recognition / morphology)” value in series [1] is “more pronounced anti-angiogenic morphological aspect”. For the same molecule, the “Cell death by apoptosis, % of MCF-7 cell population” value in series [2] is recorded as 39%. The “Morphological alterations, MCF-7” value in [3] was “produced the same results”. For the same molecule, the “Cell cycle effect, MCF-7, 48 h” value in series [4] was “decrease of cells in G2/M and an increase of cells in S phase”. Further, in [5], the “CD44-/CD24- subpopulation, MCF-7 (mean ± SEM)” value amounted to 3.09 ± 0.46%; the “CD44+/CD24+ subpopulation, MCF-7 (mean ± SEM)” value is 61.97 ± 19.91%; the “CD44-/CD24+ subpopulation, MCF-7 (mean ± SEM)” value was 34.92 ± 19.45%; the “CD44+/CD24- subpopulation, MCF-7 (mean ± SEM)” value was determined as 0.005 ± 0.005%. Moreover, the IC50 in [6] (MDA-MB-231, 72 h) came out at 17.9 µM. The “Effect on cell viability, MDA-MB-231” value in series [6] (setting [12]) is reported as “significant decrease in cell viability”. Further, the “Maximum non-cytotoxic concentration to normal cells” value in [7] (fibroblasts, 72 h treatment, MTT) is 0.8 mM. Also, in [8], the “CD44-/CD24- subpopulation, MDA-MB-231 (mean ± SEM)” value was 0.01 ± 0.00%. Moreover, in series [8] (concentrations as E32), the “CD44-/CD24+ subpopulation, MDA-MB-231 (mean ± SEM)” value is on record as 0.0 ± 0.0% and the “CD44+/CD24+ subpopulation, MDA-MB-231 (mean ± SEM)” value worked out at 52.14 ± 10.60%. In series [9], the “Cell death by apoptosis, % of MDA-MB-231 cell population” value amounted to 83%. In series [10] (setting [13]), the “Monoastral Spindle (%) 24 h” value is on record as 99.35% and the “Mitotic spindle / microtubule organization (α-tubulin immunostaining)” value is “caused monoastral spindle formation”. Besides, the “Bipolar Spindle (%) 24 h” value in [10] (MCF-7, 24 h) was determined as 0.65%. Besides, in series [10], the “Bipolar Spindle (%) 48 h” value is reported as 20% and the “Monoastral Spindle (%) 48 h” value was determined as 80%. In addition, the IC50 in series [11] (MCF7, 72 h) amounted to 127 µM. For the same molecule, the “Effect on cell viability, MCF-7” value in series [11] (setting [12]) is “significant decrease in cell viability”.
Consider `CCOC(=O)C1=C(C)NC(=S)NC1c1cccc(O)c1` (stereo not shown) [Monastrol, reference compound], for which, in [5], the “CD44-/CD24- subpopulation, MCF-7 (mean ± SEM)” value is reported as 1.64 ± 0.43%; the “CD44+/CD24+ subpopulation, MCF-7 (mean ± SEM)” value worked out at 29.53 ± 5.30%; the “CD44-/CD24+ subpopulation, MCF-7 (mean ± SEM)” value came out at 68.56 ± 5.93%; the “CD44+/CD24- subpopulation, MCF-7 (mean ± SEM)” value was found to be 0.2400 ± 0.20%. In addition, the IC50 in series [6] (MDA-MB-231, 72 h treatment, MTT) is 114 µM. The “Maximum non-cytotoxic concentration to normal cells” value in series [7] (human, 72 h) is reported as 1.0 mM. In addition, the “CD44-/CD24- subpopulation, MDA-MB-231 (mean ± SEM)” value in [8] amounted to 0.00 ± 0.003%. In series [8] (concentrations as E32), the “CD44-/CD24+ subpopulation, MDA-MB-231 (mean ± SEM)” value is on record as 0.007 ± 0.003% and the “CD44+/CD24+ subpopulation, MDA-MB-231 (mean ± SEM)” value is 15.56 ± 6.96%. For the same molecule, in [8] (concentrations as E32, untreated control 98.45 ± 0.47), the “CD44+/CD24- subpopulation, MDA-MB-231 (mean ± SEM)” value was determined as 84.41 ± 6.97%. Also, the “Monoastral Spindle (%) 24 h” value in series [10] (setting [13]) was 97.66%. In [10] (MCF-7, 24 h), the “Bipolar Spindle (%) 24 h” value amounted to 2.33%. In series [10], the “Bipolar Spindle (%) 48 h” value is listed as 8% and the “Monoastral Spindle (%) 48 h” value came out at 92%. Further, the IC50 in series [11] (MCF7, 72 h treatment, MTT) turned out to be 110 µM.
